Results reported in the supplement of paper PMC10307832.

How the values were obtained:
Experiment in all cases: relative viability (nuclei count vs DMSO), 5 days (fraction); higher = more cells survive
[1] = compound: CCC1=CN=CN=C1N2CCN(CC2)CC3=NC4=C(N3)C=C(C=C4)C(F)(F)F + COc1cc2c(Oc3ccc(NC(=O)C4(C(=O)Nc5ccc(F)cc5)CC4)cc3F)ccnc2cc1OCCCN1CCOCC1 [Foretinib] (partner 0.25 µM)
How it was run: (§1)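 Each reported value is a median over duplicate plates. It expresses relative viability: treated-well nuclei count divided by vehicle-well nuclei count. Lung cancer cell lines in 1536-well plates were dosed by pin tool a day after seeding, alone with one drug or with a fixed anchor-drug dose plus five library-drug doses (not always all listed) in √10 steps, and nuclei were counted after 5 days.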

[2] = compound: CCn1c(-c2nonc2N)nc2cnc(Oc3cccc(NC(=O)c4ccc(OCCN5CCOCC5)cc4)c3)cc21 + Nc1nc2[nH]cc(CCc3ccc(C(=O)N[C@@H](CCC(=O)O)C(=O)O)cc3)c2c(=O)[nH]1 [Pemetrexed] (partner 0.2 µM)
How it was run: as §1

Mirin + Tozasertib = compound: N=C1NC(=O)/C(=C/c2ccc(O)cc2)S1 [Mirin] + Cc1cc(Nc2cc(N3CCN(C)CC3)nc(Sc3ccc(NC(=O)C4CC4)cc3)n2)n[nH]1 [Tozasertib] (partner 0.1 µM)
How it was run: as §1

Mirin + Decitabine = compound: N=C1NC(=O)/C(=C/c2ccc(O)cc2)S1 [Mirin] + Nc1ncn([C@H]2C[C@H](O)[C@@H](CO)O2)c(=O)n1 [Decitabine] (partner 2 µM)
How it was run: as §1

| Cell Line | relative viability ([1]; first compound 0.04 µM) | relative viability ([1]; first compound 0.1265 µM) | relative viability ([1]; first compound 0.4 µM) | relative viability ([1]; first compound 1.265 µM) | relative viability ([1]; first compound 4 µM) | relative viability ([2]; first compound 0.04 µM) | relative viability ([2]; first compound 0.1265 µM) | relative viability ([2]; first compound 0.4 µM) | relative viability ([2]; first compound 1.265 µM) | relative viability ([2]; first compound 4 µM) | relative viability (Mirin + Tozasertib; first compound 0.25 µM) | relative viability (Mirin + Tozasertib; first compound 0.7906 µM) | relative viability (Mirin + Tozasertib; first compound 2.5 µM) | relative viability (Mirin + Tozasertib; first compound 7.906 µM) | relative viability (Mirin + Tozasertib; first compound 25 µM) | relative viability (Mirin + Decitabine; first compound 0.25 µM) | relative viability (Mirin + Decitabine; first compound 0.7906 µM) | relative viability (Mirin + Decitabine; first compound 2.5 µM) | relative viability (Mirin + Decitabine; first compound 7.906 µM) | relative viability (Mirin + Decitabine; first compound 25 µM) |
| --- | --- | --- | --- | --- | --- | --- | --- | --- | --- | --- | --- | --- | --- | --- | --- | --- | --- | --- | --- | --- |
| PC-14 | 1.01 | 0.825 | 0.947 | 0.963 | 0.997 | 0.136 | 0.149 | 0.131 | 0.138 | 0.177 | 0.587 | 0.581 | 0.589 | 0.599 | 0.566 | 0.2 | 0.24 | 0.232 | 0.225 | 0.205 |
| NCI-H1666 | 0.88 | 0.923 | 0.97 | 0.882 | 0.889 | 0.875 | 0.859 | 0.926 | 0.828 | 0.606 | 0.625 | 0.621 | 0.582 | 0.519 | 0.518 | 0.543 | 0.676 | 0.76 | 0.654 | 0.692 |
| NCI-H1944 | 1.1 | 0.844 | 0.809 | 0.648 | 0.694 | 0.654 | 0.632 | 0.577 | 0.367 | 0.301 | 0.245 | 0.231 | 0.253 | 0.192 | 0.174 | 0.426 | 0.471 | 0.489 | 0.425 | 0.436 |
| NCI-H2023 | 0.698 | 0.911 | 0.849 | 0.628 | 0.895 | 0.231 | 0.155 | 0.214 | 0.163 | 0.153 | 0.343 | 0.354 | 0.38 | 0.27 | 0.188 | 0.237 | 0.238 | 0.216 | 0.228 | 0.225 |
| NCI-H1755 | 0.895 | 0.86 | 0.844 | 0.743 | 0.88 | 0.46 | 0.41 | 0.439 | 0.364 | 0.355 | 0.682 | 0.587 | 0.655 | 0.462 | 0.606 | 0.725 | 0.775 | 0.703 | 0.717 | 0.752 |
| NCI-H2347 | 0.8 | 0.714 | 0.798 |  | 0.896 | 0.438 | 0.424 | 0.399 | 0.33 | 0.371 | 0.58 | 0.457 | 0.681 | 0.587 | 0.439 | 0.595 | 0.599 | 0.604 | 0.604 | 0.611 |
| 201T | 1.21 | 1.07 | 1.09 | 1.02 | 1.07 | 0.356 | 0.347 | 0.343 | 0.263 | 0.303 | 0.929 | 0.982 | 0.88 | 0.881 | 0.599 | 0.877 | 0.885 | 0.842 | 0.939 | 1 |
| NCI-H1734 | 0.828 | 0.811 | 0.874 | 0.816 | 0.765 | 0.397 | 0.401 | 0.307 | 0.281 | 0.29 | 0.262 | 0.285 | 0.272 | 0.228 | 0.223 | 0.479 | 0.493 | 0.565 | 0.491 | 0.419 |
| NCI-H596 | 0.861 | 1.13 | 0.818 |  | 0.966 | 0.438 | 0.484 | 0.462 | 0.451 | 0.48 | 1.05 | 0.953 | 0.972 | 1.13 | 0.866 | 1.03 | 1.2 | 1 | 0.993 | 0.998 |
| NCI-H1650 | 1.26 | 0.893 | 0.931 |  | 0.808 | 0.343 | 0.326 | 0.389 | 0.334 | 0.343 | 0.379 | 0.483 | 0.421 | 0.325 | 0.277 | 0.479 | 0.385 | 0.403 | 0.31 | 0.364 |
| NCI-H1355 | 1 | 0.875 | 0.85 | 0.946 | 0.793 | 1.12 | 1.05 | 0.769 | 0.835 | 0.581 | 0.526 | 0.637 | 0.533 | 0.394 | 0.272 | 0.365 | 0.367 | 0.391 | 0.38 | 0.365 |
| NCI-H1915 | 1.11 | 1.06 | 1.04 | 0.943 | 0.996 | 0.497 | 0.494 | 0.448 | 0.183 | 0.174 | 0.44 |  | 0.413 | 0.35 | 0.289 | 0.275 | 0.252 | 0.278 | 0.255 | 0.255 |
| BEN | 0.368 | 0.522 | 0.527 | 0.343 | 0.374 | 0.725 | 0.647 | 0.395 | 0.412 | 0.534 | 0.438 | 0.584 | 0.523 | 0.553 | 0.456 | 0.553 | 0.711 | 0.661 | 0.67 | 0.522 |
| NCI-H322M | 1.08 | 0.907 | 0.939 | 0.953 | 0.925 | 0.714 | 0.716 | 0.617 | 0.47 | 0.559 | 0.509 | 0.524 | 0.569 | 0.447 | 0.401 | 0.674 | 0.712 | 0.725 | 0.705 | 0.614 |
| SK-MES-1 | 0.917 | 0.925 | 0.909 | 0.829 | 0.882 | 1.08 | 0.941 | 0.829 | 0.66 | 0.46 | 0.95 | 1.14 | 0.87 | 0.936 | 0.665 | 0.347 | 0.446 | 0.372 | 0.292 | 0.329 |
| HOP-62 | 1.14 | 1.12 | 1.07 | 1.25 | 0.942 | 0.319 | 0.309 | 0.284 | 0.228 | 0.252 | 0.367 | 0.381 | 0.357 | 0.257 | 0.324 | 0.221 | 0.188 | 0.203 | 0.224 | 0.218 |
